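48-hour exposure; five concentrations; linearly interpolated endpoints. TGI marks complete inhibition of growth.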
Experiments:
Experiment in all cases: growth of human tumour cells (NCI), 48 h
SN12C renal = system: SN12C renal
KM12 colon = system: KM12 colon
UACC-62 melanoma = system: UACC-62 melanoma
A549 NSCLC = system: A549 NSCLC
OVCAR-5 ovarian = system: OVCAR-5 ovarian
M14 melanoma = system: M14 melanoma
NCI-H460 lung = system: NCI-H460 lung
TK-10 renal = system: TK-10 renal
UO-31 renal = system: UO-31 renal
SW-620 colon = system: SW-620 colon
OVCAR-8 ovarian = system: OVCAR-8 ovarian
DMS 273 small cell lung = system: DMS 273 small cell lung
HOP-62 NSCLC = system: HOP-62 NSCLC
NCI-H23 lung = system: NCI-H23 lung
SK-MEL-28 melanoma = system: SK-MEL-28 melanoma
LOX IMVI melanoma = system: LOX IMVI melanoma
CAKI-1 renal = system: CAKI-1 renal
NCI-H226 lung = system: NCI-H226 lung
CCRF-CEM leukemia = system: CCRF-CEM leukemia
ACHN renal = system: ACHN renal
LXFL 529 NSCLC = system: LXFL 529 NSCLC
HCC-2998 colon = system: HCC-2998 colon
EKVX NSCLC = system: EKVX NSCLC
SNB-19 CNS = system: SNB-19 CNS
SK-OV-3 ovarian = system: SK-OV-3 ovarian
SF-539 CNS = system: SF-539 CNS
SF-268 CNS = system: SF-268 CNS
SF-295 CNS = system: SF-295 CNS
RXF 393 renal = system: RXF 393 renal
UACC-257 melanoma = system: UACC-257 melanoma
SK-MEL-2 melanoma = system: SK-MEL-2 melanoma
U251 CNS = system: U251 CNS
COLO 205 colon = system: COLO 205 colon
HCT-15 colon = system: HCT-15 colon
OVCAR-4 ovarian = system: OVCAR-4 ovarian
SNB-78 CNS = system: SNB-78 CNS
NCI-H522 lung = system: NCI-H522 lung
786-0 renal = system: 786-0 renal
RPMI-8226 leukemia = system: RPMI-8226 leukemia
KM20L2 colon = system: KM20L2 colon
HOP-92 NSCLC = system: HOP-92 NSCLC
HCT-116 colon = system: HCT-116 colon
MOLT-4 leukemia = system: MOLT-4 leukemia
XF 498 CNS = system: XF 498 CNS
M19-MEL melanoma = system: M19-MEL melanoma
HL-60(TB) leukemia = system: HL-60(TB) leukemia
A498 renal = system: A498 renal
HT29 colon = system: HT29 colon
IGROV1 ovarian = system: IGROV1 ovarian
MALME-3M melanoma = system: MALME-3M melanoma
K-562 leukemia = system: K-562 leukemia
SR leukemia = system: SR leukemia
SK-MEL-5 melanoma = system: SK-MEL-5 melanoma
HOP-18 NSCLC = system: HOP-18 NSCLC
DMS 114 small cell lung = system: DMS 114 small cell lung
DLD-1 colon = system: DLD-1 colon
OVCAR-3 ovarian = system: OVCAR-3 ovarian
SNB-75 CNS = system: SNB-75 CNS

## COc1ccc(C(=O)O)c2c(=O)c3ccccc3[nH]c12
SN12C renal
  TGI: > 100 µM
KM12 colon
  TGI: > 100 µM
UACC-62 melanoma
  TGI: > 100 µM
A549 NSCLC
  TGI: > 100 µM
OVCAR-5 ovarian
  TGI: > 100 µM
M14 melanoma
  TGI: > 31.6 µM
NCI-H460 lung
  TGI: > 100 µM
TK-10 renal
  TGI: > 100 µM
UO-31 renal
  TGI: > 100 µM
SW-620 colon
  TGI: > 100 µM
OVCAR-8 ovarian
  TGI: > 100 µM
DMS 273 small cell lung
  TGI: > 100 µM
HOP-62 NSCLC
  TGI: > 31.6 µM
NCI-H23 lung
  TGI: > 100 µM
SK-MEL-28 melanoma
  TGI: > 100 µM
LOX IMVI melanoma
  TGI: > 100 µM
CAKI-1 renal
  TGI: > 100 µM
NCI-H226 lung
  TGI: > 100 µM
CCRF-CEM leukemia
  TGI: > 31.6 µM
ACHN renal
  TGI: > 100 µM
LXFL 529 NSCLC
  TGI: > 100 µM
HCC-2998 colon
  TGI: > 100 µM
EKVX NSCLC
  TGI: > 100 µM
SNB-19 CNS
  TGI: > 100 µM
SK-OV-3 ovarian
  TGI: > 100 µM
SF-539 CNS
  TGI: > 100 µM
SF-268 CNS
  TGI: > 100 µM
SF-295 CNS
  TGI: > 100 µM
RXF 393 renal
  TGI: > 100 µM
UACC-257 melanoma
  TGI: > 100 µM
SK-MEL-2 melanoma
  TGI: > 100 µM
U251 CNS
  TGI: > 100 µM
COLO 205 colon
  TGI: > 100 µM
HCT-15 colon
  TGI: > 100 µM
OVCAR-4 ovarian
  TGI: > 100 µM
SNB-78 CNS
  TGI: > 100 µM
NCI-H522 lung
  TGI: > 100 µM
786-0 renal
  TGI: > 100 µM
RPMI-8226 leukemia
  TGI: > 100 µM
KM20L2 colon
  TGI: > 100 µM
HOP-92 NSCLC
  TGI: > 100 µM
HCT-116 colon
  TGI: > 100 µM
MOLT-4 leukemia
  TGI: > 100 µM
XF 498 CNS
  TGI: > 100 µM
M19-MEL melanoma
  TGI: > 100 µM
HL-60(TB) leukemia
  TGI: > 100 µM
A498 renal
  TGI: > 100 µM
HT29 colon
  TGI: > 100 µM
IGROV1 ovarian
  TGI: > 100 µM
MALME-3M melanoma
  TGI: > 100 µM
K-562 leukemia
  TGI: > 100 µM
SR leukemia
  TGI: > 100 µM

## CC1=C(N(C)C)C(=O)c2nc3n(c2C1=O)CCC3OC(N)=O (stereo not drawn)
SN12C renal
  TGI: 28.8 µM
SK-MEL-5 melanoma
  TGI: 23.7 µM
KM12 colon
  TGI: 31.5 µM
UACC-62 melanoma
  TGI: 18 µM
A549 NSCLC
  TGI: 35.1 µM
OVCAR-5 ovarian
  TGI: 34 µM
M14 melanoma
  TGI: 27.4 µM
NCI-H460 lung
  TGI: 30.4 µM
HOP-18 NSCLC
  TGI: 32 µM
TK-10 renal
  TGI: 32.3 µM
UO-31 renal
  TGI: 31.1 µM
SW-620 colon
  TGI: 33.6 µM
OVCAR-8 ovarian
  TGI: 34.3 µM
DMS 273 small cell lung
  TGI: 29.3 µM
HOP-62 NSCLC
  TGI: 31.6 µM
NCI-H23 lung
  TGI: 28.5 µM
SK-MEL-28 melanoma
  TGI: 34.4 µM
LOX IMVI melanoma
  TGI: 25.7 µM
CAKI-1 renal
  TGI: 33.1 µM
NCI-H226 lung
  TGI: 33.7 µM
CCRF-CEM leukemia
  TGI: 42.8 µM
ACHN renal
  TGI: 30.4 µM
HCC-2998 colon
  TGI: 34.7 µM
EKVX NSCLC
  TGI: 36 µM
SNB-19 CNS
  TGI: 31.4 µM
SK-OV-3 ovarian
  TGI: 29.5 µM
SF-539 CNS
  TGI: 31.8 µM
DMS 114 small cell lung
  TGI: 30.6 µM
SF-268 CNS
  TGI: 34.6 µM
SF-295 CNS
  TGI: 28.5 µM
UACC-257 melanoma
  TGI: 27.6 µM
SK-MEL-2 melanoma
  TGI: 29.8 µM
U251 CNS
  TGI: 49.9 µM
COLO 205 colon
  TGI: 33.1 µM
DLD-1 colon
  TGI: 29.9 µM
HCT-15 colon
  TGI: 28.9 µM
OVCAR-4 ovarian
  TGI: 34.7 µM
OVCAR-3 ovarian
  TGI: 30.6 µM
SNB-78 CNS
  TGI: 40.9 µM
NCI-H522 lung
  TGI: 28.8 µM
786-0 renal
  TGI: 31.6 µM
RPMI-8226 leukemia
  TGI: > 100 µM
KM20L2 colon
  TGI: 38.6 µM
HOP-92 NSCLC
  TGI: 28.2 µM
SNB-75 CNS
  TGI: 42.5 µM
HCT-116 colon
  TGI: 28.8 µM
MOLT-4 leukemia
  TGI: > 100 µM
XF 498 CNS
  TGI: 38.8 µM
M19-MEL melanoma
  TGI: 3.12 µM
HL-60(TB) leukemia
  TGI: 31.6 µM
A498 renal
  TGI: 26.6 µM
HT29 colon
  TGI: 35.6 µM
IGROV1 ovarian
  TGI: 30.6 µM
MALME-3M melanoma
  TGI: 23.3 µM
K-562 leukemia
  TGI: 49.8 µM
SR leukemia
  TGI: > 100 µM

Source: PubChem BioAssay (NCI)
